According to ChEMBL document CHEMBL1201862, “PubChem BioAssay data set” (2004):
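Following 48 hours of exposure in 96-well plates, responses at five concentrations were used to interpolate endpoints linearly. Here, GI50 denotes the concentration required for 50% inhibition of growth.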 Calls of active or inactive are those of the source. No stated cut-off is given here; in the data, active = GI50 up to about 1.1 µM and inactive = higher.

Columns and labels:
Assay in all cases: NCI tumour cell line growth inhibition, 48 h
M14 = tested on: M14
KM12 = tested on: KM12
UACC-62 = tested on: UACC-62
LOX IMVI = tested on: LOX IMVI
HT-29 = tested on: HT-29
CCRF-CEM = tested on: CCRF-CEM
NCI-H23 = tested on: NCI-H23
HCT-15 = tested on: HCT-15
HCC 2998 = tested on: HCC 2998
SNB-19 = tested on: SNB-19
XF498 = tested on: XF498
ACHN = tested on: ACHN
OVCAR-8 = tested on: OVCAR-8
UACC-257 = tested on: UACC-257
NCI-H522 = tested on: NCI-H522
OVCAR-4 = tested on: OVCAR-4
LXFL 529 = tested on: LXFL 529
T47D = tested on: T47D
NCI/ADR-RES = tested on: NCI/ADR-RES
DU-145 = tested on: DU-145

SMILES	GI50 (M14)	GI50 (KM12)	GI50 (UACC-62)	GI50 (LOX IMVI)	GI50 (HT-29)	GI50 (CCRF-CEM)	GI50 (NCI-H23)	GI50 (HCT-15) [µM]	GI50 (HCC 2998)	GI50 (SNB-19)	GI50 (XF498)	GI50 (ACHN)	GI50 (OVCAR-8)	GI50 (UACC-257)	GI50 (NCI-H522)	GI50 (OVCAR-4)	GI50 (LXFL 529)	GI50 (T47D)	GI50 (NCI/ADR-RES)	GI50 (DU-145)
CCN(CC)/[N+]([O-])=N/OCC(C)O (stereo not drawn)	> 100 µM (inactive)	> 100 µM (inactive)	> 100 µM (inactive)	> 100 µM (inactive)	> 100 µM (inactive)	> 100 µM (inactive)	> 100 µM (inactive)	> 100	> 100 µM (inactive)	> 100 µM (inactive)	> 100 µM (inactive)	> 100 µM (inactive)	> 100 µM (inactive)	> 100 µM (inactive)	> 100 µM (inactive)					
Oc1ccc(I)c2cccnc12	10.4 µM (inactive)	14.8 µM (inactive)		8.26 µM (inactive)	38.2 µM (inactive)	2.42 µM (inactive)	8.38 µM (inactive)	4.19		17.8 µM (inactive)	38.9 µM (inactive)	7.13 µM (inactive)	3.66 µM (inactive)	16.3 µM (inactive)	1.94 µM (inactive)	26.4 µM (inactive)	4.11 µM (inactive)			
CC1CCC[P+](Cc2ccccc2)(c2ccccc2)CC1 (stereo not drawn)	35.9 µM (inactive)		25 µM (inactive)	32 µM (inactive)		42.3 µM (inactive)	27.2 µM (inactive)	> 100	29.1 µM (inactive)	46.5 µM (inactive)	21.4 µM (inactive)	> 100 µM (inactive)	59.8 µM (inactive)			15.8 µM (inactive)	15.8 µM (inactive)			
O=C(N/C(=C\c1cc(Cl)ccc1Cl)c1nc2ccccc2[nH]1)c1ccccc1	27.9 µM (inactive)	27.4 µM (inactive)	38.9 µM (inactive)		16.3 µM (inactive)	25.9 µM (inactive)	23.8 µM (inactive)	24	17.9 µM (inactive)	46.9 µM (inactive)	26.9 µM (inactive)	33.3 µM (inactive)	19.2 µM (inactive)		29.1 µM (inactive)	30.1 µM (inactive)	24.5 µM (inactive)			
COc1cc(OC)c(OC)cc1/C=N/NC(=O)N/N=C/c1cc(OC)c(OC)cc1OC	> 100 µM (inactive)	> 100 µM (inactive)	> 100 µM (inactive)	> 100 µM (inactive)	> 100 µM (inactive)	> 100 µM (inactive)	> 100 µM (inactive)	> 100		> 100 µM (inactive)	72.4 µM (inactive)	> 100 µM (inactive)	91 µM (inactive)	> 100 µM (inactive)	17.5 µM (inactive)	> 100 µM (inactive)	> 100 µM (inactive)			
BrC(Br)=C1C(=C(Br)Br)C(Br)C1Br (stereo not drawn)	0.198 µM (active)	0.61 µM (active)	0.429 µM (active)	0.0706 µM (active)	0.362 µM (active)	0.0989 µM (active)	0.284 µM (active)	0.301	0.142 µM (active)	1.95 µM (inactive)		0.152 µM (active)	0.55 µM (active)	1.75 µM (inactive)	0.139 µM (active)	2.51 µM (inactive)	0.439 µM (active)	1.76 µM (inactive)	0.733 µM (active)	0.106 µM (active)
O=c1c2ccccc2n2n1CC(O)C2 (stereo not drawn)	> 100 µM (inactive)	> 100 µM (inactive)	0.641 µM (active)	> 100 µM (inactive)	> 100 µM (inactive)	> 100 µM (inactive)	> 100 µM (inactive)	> 100	> 100 µM (inactive)	> 100 µM (inactive)	> 100 µM (inactive)	2.14 µM (inactive)	> 100 µM (inactive)	> 100 µM (inactive)	> 100 µM (inactive)	> 100 µM (inactive)				
COC1OC(CO)C(O)C1N (stereo not drawn)	> 100 µM (inactive)	> 100 µM (inactive)	> 100 µM (inactive)	> 100 µM (inactive)	> 100 µM (inactive)	> 100 µM (inactive)	> 100 µM (inactive)	> 100		> 100 µM (inactive)		> 100 µM (inactive)	> 100 µM (inactive)	> 100 µM (inactive)	> 100 µM (inactive)	> 100 µM (inactive)	> 100 µM (inactive)			
CC(=O)N(C)c1ccc2ncccc2c1[N+](=O)[O-]	> 100 µM (inactive)	> 100 µM (inactive)	> 100 µM (inactive)	> 100 µM (inactive)	> 100 µM (inactive)	> 100 µM (inactive)	> 100 µM (inactive)	> 100	> 100 µM (inactive)	> 100 µM (inactive)	> 100 µM (inactive)	> 100 µM (inactive)	> 100 µM (inactive)	> 100 µM (inactive)		> 100 µM (inactive)	> 100 µM (inactive)			
COc1ccc(C#CCC(OC2OC(CO)C(O)C(O)C2O)C(O)c2ccc(OC)c(OC)c2)cc1OC (stereo not drawn)	> 100 µM (inactive)	> 100 µM (inactive)	61.7 µM (inactive)	22.8 µM (inactive)	> 100 µM (inactive)	36.6 µM (inactive)	> 100 µM (inactive)	> 100	> 100 µM (inactive)	> 100 µM (inactive)		> 100 µM (inactive)	> 100 µM (inactive)	> 100 µM (inactive)	> 100 µM (inactive)	> 100 µM (inactive)	> 100 µM (inactive)			
C=CCn1c(=O)ccn(/C(=C/C(=O)OCC)C(=O)OCC)c1=O	13.5 µM (inactive)	17.5 µM (inactive)	15.7 µM (inactive)	6.7 µM (inactive)	10.4 µM (inactive)	2.08 µM (inactive)	17.1 µM (inactive)	1.83	16.5 µM (inactive)	29.4 µM (inactive)		3.72 µM (inactive)	15.6 µM (inactive)	15.2 µM (inactive)	2.44 µM (inactive)	12.4 µM (inactive)		5.13 µM (inactive)	21.3 µM (inactive)	21.7 µM (inactive)
NNC(=O)N/N=C1\C(=O)N(c2nccs2)C(=O)C(=O)C1c1nc2ccccc2s1 (stereo not drawn)	> 100 µM (inactive)	> 100 µM (inactive)	> 100 µM (inactive)	> 100 µM (inactive)	> 100 µM (inactive)		> 100 µM (inactive)	> 100	> 100 µM (inactive)	> 100 µM (inactive)	> 100 µM (inactive)	> 100 µM (inactive)	> 100 µM (inactive)	> 100 µM (inactive)		> 100 µM (inactive)	> 100 µM (inactive)			
CC(Oc1ccccc1Cl)C(=O)NN1C(=O)CSC1c1ccccc1 (stereo not drawn)	> 100 µM (inactive)	> 100 µM (inactive)	> 100 µM (inactive)	> 100 µM (inactive)	> 100 µM (inactive)	> 100 µM (inactive)	> 100 µM (inactive)	> 100	> 100 µM (inactive)	> 100 µM (inactive)		> 100 µM (inactive)	> 100 µM (inactive)	> 100 µM (inactive)	64.6 µM (inactive)	> 100 µM (inactive)		63.4 µM (inactive)	> 100 µM (inactive)	> 100 µM (inactive)
Cc1c(Cl)cccc1NC(=O)C(=O)C(C(=O)c1ccccc1-c1ccccc1)C1OC(=O)c2ccccc21 (stereo not drawn)	17 µM (inactive)	18.5 µM (inactive)	17.9 µM (inactive)	18.3 µM (inactive)	33.1 µM (inactive)	19.8 µM (inactive)	14.5 µM (inactive)		17.1 µM (inactive)		11.5 µM (inactive)		25.5 µM (inactive)	13.5 µM (inactive)	12.5 µM (inactive)		14 µM (inactive)			
CN1CCC(O)C(CNC23CC4CC(CC(C4)C2)C3)C1 (stereo not drawn)		> 100 µM (inactive)	> 100 µM (inactive)	> 100 µM (inactive)	> 100 µM (inactive)	> 100 µM (inactive)	> 100 µM (inactive)			> 100 µM (inactive)	> 100 µM (inactive)	> 100 µM (inactive)	> 100 µM (inactive)	> 100 µM (inactive)	> 100 µM (inactive)	> 100 µM (inactive)	> 100 µM (inactive)			
Cc1cc(N(CCC#N)CCC#N)ccc1/C=C1N=C(/C=C\c2ccccc2)N(c2ccc(C(=O)O)cc2)C\1=O	> 100 µM (inactive)	> 100 µM (inactive)	> 100 µM (inactive)	> 100 µM (inactive)	> 100 µM (inactive)	> 100 µM (inactive)	> 100 µM (inactive)	> 100		> 100 µM (inactive)		> 100 µM (inactive)	> 100 µM (inactive)	> 100 µM (inactive)	> 100 µM (inactive)	> 100 µM (inactive)	> 100 µM (inactive)			
Cn1c(=O)nc2n(-c3cc(Cl)ccc3Cl)c3ccccc3nc-2c1=O	3.63 µM (inactive)	5.58 µM (inactive)	1.61 µM (inactive)		1.54 µM (inactive)	4.02 µM (inactive)	0.299 µM (active)	3.8	2.68 µM (inactive)	4.67 µM (inactive)	7.76 µM (inactive)	0.906 µM (active)	3.34 µM (inactive)	2.18 µM (inactive)	5.31 µM (inactive)	4.33 µM (inactive)	13.8 µM (inactive)			
CC1(C)CC[C@]2(C(=O)O)CC[C@]3(C)[C@H](C(=O)C=C4[C@@]5(C)C=C(C#N)C(=O)C(C)(C)[C@@H]5CC[C@]43C)[C@@H]2C1 [BARDOXOLONE]	0.769 µM (active)	0.279 µM (active)	0.2 µM (active)	0.0944 µM (active)	0.495 µM (active)	0.22 µM (active)	0.174 µM (active)	0.113	< 0.0412 µM (active)	0.303 µM (active)		0.543 µM (active)	0.577 µM (active)	1.14 µM (inactive)	0.923 µM (active)	1.03 µM (active)		0.414 µM (active)	0.993 µM (active)	0.508 µM (active)
